These results are taken from patent US20230190741A1, “LONG-LASTING REABSORBABLE SUBCUTANEOUS IMPLANT WITH SUSTAINED RELEASE OF PRE-CONCENTRATED PHARMACOLOGICALLY ACTIVE SUBSTANCE IN POLYMER FOR THE TREATMENT OF ERECTILE DYSFUNCTION AND BENIGN PROSTATIC HYPERPLASIA” (priority 2020, published 2023).

The subject of one data set is erectile dysfunction. The settings on record: injection 10 mcg or 20 mcg applied directly to the penis, cited from earlier work.
Data set [1] is described as follows: half-life of the oral drug. The format is in vivo. To be noted: tadalafil vs sildenafil.
For data set [2] the following is noted: oral administration; cited from earlier work.

`CCCCC[C@H](O)/C=C/[C@H]1[C@H](O)CC(=O)[C@@H]1CCCCCCC(=O)O` [alprostadil]: the duration of effect in the data set on erectile dysfunction (depending on the patient) is no more than 2 h. In addition, the “time until effect after application” value in the data set on erectile dysfunction was 20 min.
For `CN1CC(=O)N2[C@H](c3ccc4c(c3)OCO4)c3[nH]c4ccccc4c3C[C@@H]2C1=O` [tadalafil], the “half-life relative to half-life of sildenafil” value in data set [1] was 4.38 times. The “loss of drug ingested (first-pass metabolism plus absorptive process)” value in data set [2] is given as no more than 50%.
